The values that follow come from ChEMBL document CHEMBL1201862, “PubChem BioAssay data set” (2004).

Molecules are shown by their SMILES.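 Tested at 5 concentrations; 48 h exposure; 96-well plates; endpoints linearly interpolated, else capped at highest concentration. Abbreviation: GI50, concentration required for 50% inhibition of growth.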 Calls of active or inactive are those of the source. Rule as the data show it: active = GI50 up to about 1.1 µM and inactive = higher.

Some test systems named below: HCT-116; A549; HOP-62; KM12; HT-29; RXF 393; NCI/ADR-RES; SW-620; K562; PC-3; OVCAR-3; NCI-H522; 786-0; TK-10; SK-OV-3; SK-MEL-2; RPMI-8226; NCI-H460; HL-60.
Assay in all cases: inhibition of tumour cell growth, NCI panel, 48 h

For the molecule `COC(=O)c1ccc2cc(O)ccc2c1`, the GI50 was 68.7 µM (inactive) with HCT-116; 69.2 µM (inactive) in the assay with A549; > 100 µM (inactive) with HOP-62; 39.9 µM (inactive) with KM12; 47.6 µM (inactive) with HT-29; > 100 µM (inactive) with RXF 393. Also, the GI50 in the assay on NCI/ADR-RES was 47.9 µM (inactive); in the assay on SW-620, > 100 µM (inactive); with K562 it was 41.5 µM (inactive); in the assay on PC-3, > 100 µM (inactive); with OVCAR-3, > 100 µM (inactive); in the assay on NCI-H522 it was 58.6 µM (inactive). Further, the GI50 in the assay on 786-0 is 89.9 µM (inactive); with TK-10, > 100 µM (inactive); in the assay with SK-OV-3, > 100 µM (inactive); with SK-MEL-2, > 100 µM (inactive); in the assay with RPMI-8226 it was 53.5 µM (inactive).
Regarding `CO[C@](C(=O)OC[C@H]1[C@@H](COC(C)=O)[C@@H]2O[C@H]1c1cc3c(cc12)OCO3)(c1ccccc1)C(F)(F)F`, the GI50 with HCT-116 is 13.6 µM (inactive); in the assay on A549, 17.5 µM (inactive); in the assay on HOP-62 it was 26.2 µM (inactive); with KM12, 14.2 µM (inactive); in the assay on NCI-H460, 13.4 µM (inactive); with HT-29 it was 39.2 µM (inactive). Also, the GI50 in the assay with SW-620 was 95.9 µM (inactive); with PC-3 it was 19.4 µM (inactive); with OVCAR-3, 27 µM (inactive); in the assay with NCI-H522 it was 4.26 µM (inactive); in the assay with TK-10, 38.3 µM (inactive); with SK-OV-3, 89.7 µM (inactive). For the same molecule, the GI50 in the assay on SK-MEL-2 is 28.6 µM (inactive); in the assay with RPMI-8226, 3.68 µM (inactive).
For `COc1ccc2c(c1)CCN1CCCc3ccccc3C21` (centres undefined), the GI50 in the assay with HCT-116 was 30.9 µM (inactive); in the assay on A549 it was 50.5 µM (inactive); in the assay on HOP-62, 69.2 µM (inactive); in the assay with KM12, 33.7 µM (inactive); with HT-29 it was 28.2 µM (inactive); with RXF 393 it was 65.8 µM (inactive). Further, the GI50 in the assay on NCI/ADR-RES was 41.3 µM (inactive); with SW-620, 52 µM (inactive); in the assay with K562, 30.1 µM (inactive); in the assay on PC-3 it was 36.9 µM (inactive); in the assay on OVCAR-3, 79.3 µM (inactive); in the assay on NCI-H522, 34.4 µM (inactive). Also, the GI50 with 786-0 is 38.4 µM (inactive); with TK-10 it was > 100 µM (inactive); in the assay with SK-OV-3 it was 46.3 µM (inactive); in the assay with SK-MEL-2, 46.3 µM (inactive); with RPMI-8226 it was 22.3 µM (inactive).
Consider `CC(C)[Si](CC1=CCCCC12C(=O)N(COCC[Si](C)(C)C)c1ccccc12)(C(C)C)C(C)C` (centres undefined), for which the GI50 with A549 was > 100 µM (inactive); in the assay on HOP-62, > 100 µM (inactive); with KM12, > 100 µM (inactive); in the assay on NCI-H460, 82.2 µM (inactive); in the assay on HT-29, 51.6 µM (inactive); with RXF 393 it was 20.6 µM (inactive). Also, the GI50 was > 100 µM (inactive) with NCI/ADR-RES; > 100 µM (inactive) in the assay with SW-620; > 100 µM (inactive) in the assay with K562; > 100 µM (inactive) in the assay with PC-3; 39.4 µM (inactive) with OVCAR-3; 41.8 µM (inactive) in the assay on NCI-H522. Further, the GI50 in the assay with 786-0, in the assay on TK-10, in the assay on SK-OV-3, with SK-MEL-2 and with RPMI-8226 was > 100 µM (inactive) in each case.
As for `O=C(C#Cc1ccccc1)N1CCCCC1`, the GI50 was 21.9 µM (inactive) in the assay with HL-60; 16.8 µM (inactive) in the assay with HCT-116; 76.9 µM (inactive) with A549; > 100 µM (inactive) with HOP-62; > 100 µM (inactive) in the assay on KM12; 44.6 µM (inactive) with NCI-H460. In addition, the GI50 in the assay on HT-29 is 29 µM (inactive); in the assay on SW-620, 97.9 µM (inactive); in the assay with K562, 73.6 µM (inactive); in the assay with PC-3 it was 77.4 µM (inactive); in the assay with OVCAR-3 it was 81.7 µM (inactive); in the assay with NCI-H522, > 100 µM (inactive). The GI50 in the assay on 786-0 is 14.4 µM (inactive); in the assay on TK-10, > 100 µM (inactive); in the assay with SK-OV-3 it was > 100 µM (inactive); in the assay on SK-MEL-2 it was > 100 µM (inactive); in the assay with RPMI-8226, 62.5 µM (inactive).
With `CC1(C)C2CC3C(C)(C2)C31c1cc(Cl)ccc1N` (centres undefined), the GI50 with HCT-116 was 2.23 µM (inactive); with A549, 11.9 µM (inactive); in the assay with HOP-62 it was 15.3 µM (inactive); in the assay with KM12, 14.4 µM (inactive); in the assay with NCI-H460 it was 15.1 µM (inactive); in the assay on HT-29 it was 14.5 µM (inactive). Moreover, the GI50 in the assay with RXF 393 is 10.3 µM (inactive); in the assay on NCI/ADR-RES, 14.7 µM (inactive); in the assay with SW-620, 15 µM (inactive); in the assay on K562, 10.5 µM (inactive); in the assay with PC-3, 13.8 µM (inactive); with OVCAR-3, 16.7 µM (inactive). For the same molecule, the GI50 with NCI-H522 is 6.71 µM (inactive); in the assay with 786-0, 15.3 µM (inactive); in the assay with TK-10, 15.5 µM (inactive); in the assay with SK-OV-3, 15.5 µM (inactive); in the assay on SK-MEL-2, 15 µM (inactive); in the assay on RPMI-8226 it was 13 µM (inactive).
On to `Oc1cc(N2CCCC2)ccc1/C=N/N1C(=S)N(c2ccccc2)C(=N\c2ccccc2)/C1=N/c1ccccc1`, for which the GI50 with HCT-116 is 44.6 µM (inactive); in the assay with A549, > 100 µM (inactive); in the assay on HOP-62, 35.2 µM (inactive); in the assay on KM12, > 100 µM (inactive); in the assay with NCI-H460, > 100 µM (inactive); with HT-29, > 100 µM (inactive). Moreover, the GI50 was 14.2 µM (inactive) with RXF 393; > 100 µM (inactive) with NCI/ADR-RES; 87.9 µM (inactive) with SW-620; > 100 µM (inactive) with K562; > 100 µM (inactive) with PC-3; > 100 µM (inactive) in the assay with OVCAR-3. The GI50 is 23.4 µM (inactive) with NCI-H522; > 100 µM (inactive) in the assay with 786-0; 75 µM (inactive) in the assay on TK-10; 99.8 µM (inactive) in the assay on SK-OV-3; > 100 µM (inactive) in the assay on SK-MEL-2; > 100 µM (inactive) in the assay on RPMI-8226.
Turning to `OCC1=CC(NC2CC(CO)C(O)C(O)C2O)C(O)C(O)C1O` (centres undefined), the GI50 in the assay with HCT-116, with A549, in the assay on HOP-62, in the assay on KM12, in the assay on NCI-H460 and in the assay on HT-29 was > 100 µM (inactive) each time. The GI50 with RXF 393, in the assay with SW-620, in the assay with K562, in the assay on OVCAR-3, in the assay with NCI-H522 and in the assay with 786-0 was > 100 µM (inactive) each time. In addition, the GI50 in the assay on TK-10, in the assay with SK-OV-3 and with RPMI-8226 was > 100 µM (inactive) throughout.
Take `COC1=CC(=O)[C@]2(C)[C@H](C1=O)C(C)[C@H]2c1ccccc1` (some centres undefined): the GI50 in the assay on HL-60, with A549, with HOP-62, with KM12, in the assay with NCI-H460 and with HT-29 was > 100 µM (inactive) each time. The GI50 with RXF 393, in the assay with SW-620, with K562, with OVCAR-3, in the assay with NCI-H522 and in the assay on 786-0 was > 100 µM (inactive) in each case. Also, the GI50 with TK-10, in the assay on SK-OV-3, with SK-MEL-2 and with RPMI-8226 was > 100 µM (inactive) in each case.
For the molecule `CC(=O)Oc1ccc(/C=C/C(=O)O[C@@H](C)[C@H](C)OC(=O)/C=C/c2ccc(OC(C)=O)c(OC(C)=O)c2)cc1OC(C)=O`, the GI50 was 7.5 µM (inactive) in the assay on HCT-116; 13.8 µM (inactive) with A549; 7.45 µM (inactive) with HOP-62; 9.46 µM (inactive) in the assay with KM12; 5.94 µM (inactive) in the assay with NCI-H460; 13.6 µM (inactive) with RXF 393. The GI50 with NCI/ADR-RES was 22.2 µM (inactive); with SW-620 it was 2.42 µM (inactive); in the assay with K562, 3.99 µM (inactive); in the assay on PC-3, 23.1 µM (inactive); in the assay on OVCAR-3, 5.15 µM (inactive); with NCI-H522, 6.37 µM (inactive). In addition, the GI50 in the assay on 786-0 is 12.1 µM (inactive); with TK-10, 21.2 µM (inactive); in the assay with SK-OV-3, 19.5 µM (inactive); with SK-MEL-2, 19.7 µM (inactive); with RPMI-8226, 4.75 µM (inactive).
`COc1cc2c(c(OC)c1OC)-c1ccc(SC)c(=O)cc1[C@@H](OC(=O)c1ccncc1)CC2`: the GI50 was < 0.01 µM (active) in the assay with HCT-116; < 0.01 µM (active) in the assay on A549; < 0.01 µM (active) in the assay with KM12; < 0.01 µM (active) with NCI-H460; < 0.01 µM (active) in the assay on HT-29; 7.78 µM (inactive) with RXF 393. Moreover, the GI50 in the assay on NCI/ADR-RES, with SW-620, in the assay with K562, in the assay on PC-3, in the assay with OVCAR-3 and in the assay on NCI-H522 was < 0.01 µM (active) throughout. The GI50 with 786-0 was < 0.01 µM (active); with TK-10, 4.92 µM (inactive); with SK-OV-3 it was 0.0165 µM (active); in the assay with SK-MEL-2 it was 0.407 µM (active); with RPMI-8226 it was < 0.01 µM (active).
Turning to `O=C(C#Cc1cnc(O)nc1O)c1ccccc1Cl`, the GI50 with HL-60 was 13.3 µM (inactive); in the assay on HCT-116 it was 14.4 µM (inactive); in the assay with A549, 79.1 µM (inactive); in the assay on HOP-62, > 100 µM (inactive); with KM12 it was 29.6 µM (inactive); in the assay on NCI-H460 it was 24.3 µM (inactive). Besides, the GI50 in the assay on HT-29 was 36.4 µM (inactive); in the assay on RXF 393 it was 3.07 µM (inactive); with SW-620, 14.2 µM (inactive); in the assay on K562 it was 4.83 µM (inactive); in the assay on OVCAR-3, 14.2 µM (inactive); in the assay with 786-0 it was 18 µM (inactive). For the same molecule, the GI50 in the assay with TK-10 is 21.6 µM (inactive); in the assay on SK-OV-3, 51.3 µM (inactive); with SK-MEL-2, 16.2 µM (inactive); in the assay with RPMI-8226 it was 23.9 µM (inactive).
